ChEMBL document CHEMBL4825781, “Role of Fluorination in the Histone Deacetylase 6 (HDAC6) Selectivity of Benzohydroxamate-Based Inhibitors” (ACS Med Chem Lett, 2021)

Key:
[1] = molecular target: T1, Protein deacetylase HDAC6 (Homo sapiens, UniProt Q9UBN7); assay: Inhibition of recombinant human full length N-terminal GST-tagged HDAC6 expressed in Sf9 insect cells using Fluor de Lys deacetylase or Fluor de Lys Green deacetylase substrate by fluorescent microplate reader assay
T1 sequence (Q9UBN7 whole entry): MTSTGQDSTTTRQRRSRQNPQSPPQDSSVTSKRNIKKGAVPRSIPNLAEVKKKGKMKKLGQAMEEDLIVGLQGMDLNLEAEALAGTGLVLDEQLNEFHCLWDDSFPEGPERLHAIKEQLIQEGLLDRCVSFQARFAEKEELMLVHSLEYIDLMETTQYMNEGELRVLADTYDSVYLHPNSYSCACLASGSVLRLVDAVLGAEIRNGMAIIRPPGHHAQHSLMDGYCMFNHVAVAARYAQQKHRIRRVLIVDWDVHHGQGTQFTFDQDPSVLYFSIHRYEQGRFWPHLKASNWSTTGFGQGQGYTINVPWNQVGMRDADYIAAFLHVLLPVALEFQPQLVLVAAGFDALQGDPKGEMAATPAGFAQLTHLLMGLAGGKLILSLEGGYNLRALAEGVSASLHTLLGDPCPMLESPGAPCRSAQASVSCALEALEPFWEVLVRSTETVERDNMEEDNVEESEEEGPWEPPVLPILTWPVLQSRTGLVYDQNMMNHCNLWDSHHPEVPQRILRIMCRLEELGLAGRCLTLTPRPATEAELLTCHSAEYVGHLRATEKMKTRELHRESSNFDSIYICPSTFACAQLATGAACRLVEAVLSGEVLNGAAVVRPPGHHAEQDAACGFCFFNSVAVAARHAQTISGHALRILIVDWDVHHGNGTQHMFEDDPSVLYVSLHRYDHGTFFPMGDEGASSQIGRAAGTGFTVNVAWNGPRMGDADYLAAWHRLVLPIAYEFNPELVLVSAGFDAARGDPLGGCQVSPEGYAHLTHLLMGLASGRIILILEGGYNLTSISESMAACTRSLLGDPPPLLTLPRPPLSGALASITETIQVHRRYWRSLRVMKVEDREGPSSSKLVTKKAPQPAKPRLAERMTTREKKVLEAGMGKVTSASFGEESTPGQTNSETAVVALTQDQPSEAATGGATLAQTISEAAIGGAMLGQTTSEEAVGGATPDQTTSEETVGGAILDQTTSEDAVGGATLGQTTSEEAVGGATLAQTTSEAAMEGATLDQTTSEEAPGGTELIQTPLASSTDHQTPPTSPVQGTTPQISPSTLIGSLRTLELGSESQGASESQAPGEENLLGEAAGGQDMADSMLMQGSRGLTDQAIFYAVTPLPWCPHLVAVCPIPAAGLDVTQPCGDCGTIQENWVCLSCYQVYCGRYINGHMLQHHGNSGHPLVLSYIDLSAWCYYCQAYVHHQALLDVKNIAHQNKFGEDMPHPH

[2] = molecular target: Histone deacetylase 1 (Homo sapiens, UniProt Q13547); assay: Inhibition of recombinant human C-terminal His-tagged HDAC1 expressed in Sf9 insect cells using Fluor de Lys deacetylase or Fluor de Lys Green deacetylase as substrate by fluorescent microplate reader assay
[3] = species: Homo sapiens; assay: Selectivity index, ratio of IC50 for recombinant human C-terminal His-tagged HDAC1 expressed in Sf9 cells to IC50 for recombinant human full length N-terminal GST-tagged HDAC6 expressed in Sf9 cells
[4] = molecular target: Histone deacetylase 4 (Homo sapiens, UniProt P56524); assay: Inhibition of recombinant human N-terminal GST-tagged and C-terminal His-tagged HDAC4 (627 to 1084 residues) expressed in Sf9 insect cells using Nepsilon-Trifluoroacetyl L-lysine as substrate by fluorescent microplate reader assay
[5] = molecular target: Histone deacetylase 5 (Homo sapiens, UniProt Q9UQL6); assay: Inhibition of recombinant human ful length N-terminal GST-tagged HDAC5 expressed in baculovirus expression system using Nepsilon-Trifluoroacetyl L-lysine as substrate by fluorescent microplate reader assay
[6] = molecular target: Histone deacetylase 3 (Homo sapiens, UniProt O15379); assay: Inhibition of recombinant human C-terminal His-tagged HDAC3 (1 to 428 residues) expressed in Sf9 insect cells using Fluor de Lys deacetylase or Fluor de Lys Green deacetylase substrate by fluorescent microplate reader assay
[7] = molecular target: T2, Histone deacetylase 11 (Homo sapiens, UniProt Q96DB2); assay: Inhibition of recombinant human N-terminal His-tagged HDAC11 expressed in baculovirus expression system using Fluor de Lys deacetylase or Fluor de Lys Green deacetylase substrate by fluorescent microplate reader assay
T2 sequence (Q96DB2 whole entry): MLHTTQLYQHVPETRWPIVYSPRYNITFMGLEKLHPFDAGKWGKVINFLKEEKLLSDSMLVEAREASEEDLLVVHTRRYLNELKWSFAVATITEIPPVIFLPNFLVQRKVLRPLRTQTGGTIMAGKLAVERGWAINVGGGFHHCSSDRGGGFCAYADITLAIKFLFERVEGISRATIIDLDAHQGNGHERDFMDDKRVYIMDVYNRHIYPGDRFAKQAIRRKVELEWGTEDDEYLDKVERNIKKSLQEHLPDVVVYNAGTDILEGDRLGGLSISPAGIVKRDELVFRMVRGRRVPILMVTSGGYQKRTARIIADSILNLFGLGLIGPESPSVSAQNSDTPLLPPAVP

[8] = molecular target: T3, Polyamine deacetylase HDAC10 (Homo sapiens, UniProt Q969S8); assay: Inhibition of recombinant human N-terminal FLAG-tagged HDAC10 (1 to 613 residues) expressed in Sf9 insect cells using Fluor de Lys deacetylase or Fluor de Lys Green deacetylase substrate by fluorescent microplate reader assay
T3 sequence (Q969S8 whole entry): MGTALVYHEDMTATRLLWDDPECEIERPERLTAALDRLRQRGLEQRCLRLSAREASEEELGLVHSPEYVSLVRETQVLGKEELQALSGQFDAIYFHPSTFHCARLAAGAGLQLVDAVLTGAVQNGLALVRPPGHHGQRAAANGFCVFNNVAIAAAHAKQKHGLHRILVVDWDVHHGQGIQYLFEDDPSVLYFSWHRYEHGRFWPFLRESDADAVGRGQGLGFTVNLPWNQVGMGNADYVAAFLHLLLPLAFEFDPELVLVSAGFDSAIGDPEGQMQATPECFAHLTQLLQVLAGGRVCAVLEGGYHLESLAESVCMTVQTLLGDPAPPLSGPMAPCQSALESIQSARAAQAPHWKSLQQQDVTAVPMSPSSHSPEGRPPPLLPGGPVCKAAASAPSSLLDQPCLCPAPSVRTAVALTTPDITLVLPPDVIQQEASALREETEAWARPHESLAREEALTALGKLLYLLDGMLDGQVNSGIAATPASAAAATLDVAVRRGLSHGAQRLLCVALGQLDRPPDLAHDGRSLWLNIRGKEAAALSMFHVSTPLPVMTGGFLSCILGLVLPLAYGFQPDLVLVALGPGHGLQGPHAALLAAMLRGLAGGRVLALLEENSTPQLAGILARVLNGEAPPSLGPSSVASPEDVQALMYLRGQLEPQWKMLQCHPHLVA

[9] = molecular target: T4, Histone deacetylase 8 (Homo sapiens, UniProt Q9BY41); assay: Inhibition of recombinant human full length C-terminal His-tagged HDAC8 expressed in baculovirus expression system using Fluor de Lys deacetylase or Fluor de Lys Green deacetylase substrate by fluorescent microplate reader assay
T4 sequence (Q9BY41 whole entry): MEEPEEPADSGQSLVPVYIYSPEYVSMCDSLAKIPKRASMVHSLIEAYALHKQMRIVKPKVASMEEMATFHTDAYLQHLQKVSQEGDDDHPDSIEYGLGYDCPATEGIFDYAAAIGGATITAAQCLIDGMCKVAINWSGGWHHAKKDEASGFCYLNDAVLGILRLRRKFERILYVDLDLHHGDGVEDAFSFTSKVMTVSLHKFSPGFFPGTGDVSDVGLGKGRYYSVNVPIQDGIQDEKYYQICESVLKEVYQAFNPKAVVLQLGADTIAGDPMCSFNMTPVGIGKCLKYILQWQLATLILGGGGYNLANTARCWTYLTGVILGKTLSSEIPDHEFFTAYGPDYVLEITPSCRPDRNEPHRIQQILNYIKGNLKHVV

[10] = molecular target: Histone deacetylase 9 (Homo sapiens, UniProt Q9UKV0); assay: Inhibition of recombinant human C-terminal His-tagged HDAC9 (604 to 1066 residues) expressed in baculovirus expression system using Nepsilon-Trifluoroacetyl L-lysine substrate by fluorescent microplate reader assay
[11] = molecular target: Histone deacetylase 2 (Homo sapiens, UniProt Q92769); assay: Inhibition of recombinant human C-terminal His-tagged HDAC2 (1 to 488 residues) expressed in Sf9 insect cells using Fluor de Lys deacetylase or Fluor de Lys Green deacetylase substrate by fluorescent microplate reader assay
[12] = molecular target: T5, Histone deacetylase 7 (Homo sapiens, UniProt Q8WUI4); assay: Inhibition of recombinant human N-terminal GST-tagged HDAC7 (518 to end residues) expressed in baculovirus expression system using Nepsilon-Trifluoroacetyl L-lysine as substrate by fluorescent microplate reader assay
T5 sequence (Q8WUI4 whole entry): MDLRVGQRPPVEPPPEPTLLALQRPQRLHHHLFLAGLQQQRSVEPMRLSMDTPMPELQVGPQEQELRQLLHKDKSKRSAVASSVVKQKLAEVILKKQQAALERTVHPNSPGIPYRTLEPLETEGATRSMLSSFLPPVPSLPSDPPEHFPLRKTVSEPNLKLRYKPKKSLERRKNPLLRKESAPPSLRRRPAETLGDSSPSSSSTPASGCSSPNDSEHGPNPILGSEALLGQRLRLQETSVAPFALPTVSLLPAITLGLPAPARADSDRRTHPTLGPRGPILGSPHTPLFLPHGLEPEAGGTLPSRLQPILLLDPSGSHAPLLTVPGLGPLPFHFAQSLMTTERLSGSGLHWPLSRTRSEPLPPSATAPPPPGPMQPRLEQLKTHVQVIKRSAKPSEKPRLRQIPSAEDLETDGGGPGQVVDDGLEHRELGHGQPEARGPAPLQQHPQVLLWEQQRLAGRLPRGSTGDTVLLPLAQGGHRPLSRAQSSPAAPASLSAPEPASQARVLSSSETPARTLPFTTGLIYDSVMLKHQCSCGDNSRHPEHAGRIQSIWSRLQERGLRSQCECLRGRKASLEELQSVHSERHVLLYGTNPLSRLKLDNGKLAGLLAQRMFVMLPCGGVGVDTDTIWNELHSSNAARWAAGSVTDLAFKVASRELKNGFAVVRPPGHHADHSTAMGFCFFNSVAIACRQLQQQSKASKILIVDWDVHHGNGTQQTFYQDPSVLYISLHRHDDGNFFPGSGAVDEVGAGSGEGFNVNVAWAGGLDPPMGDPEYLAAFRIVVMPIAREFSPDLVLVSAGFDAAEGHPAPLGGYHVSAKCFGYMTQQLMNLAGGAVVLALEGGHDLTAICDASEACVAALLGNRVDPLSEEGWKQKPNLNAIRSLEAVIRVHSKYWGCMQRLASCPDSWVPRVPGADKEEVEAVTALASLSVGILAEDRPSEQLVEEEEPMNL

Histone deacetylase 2, sequence (Q92769 whole entry, the tested form may be a part): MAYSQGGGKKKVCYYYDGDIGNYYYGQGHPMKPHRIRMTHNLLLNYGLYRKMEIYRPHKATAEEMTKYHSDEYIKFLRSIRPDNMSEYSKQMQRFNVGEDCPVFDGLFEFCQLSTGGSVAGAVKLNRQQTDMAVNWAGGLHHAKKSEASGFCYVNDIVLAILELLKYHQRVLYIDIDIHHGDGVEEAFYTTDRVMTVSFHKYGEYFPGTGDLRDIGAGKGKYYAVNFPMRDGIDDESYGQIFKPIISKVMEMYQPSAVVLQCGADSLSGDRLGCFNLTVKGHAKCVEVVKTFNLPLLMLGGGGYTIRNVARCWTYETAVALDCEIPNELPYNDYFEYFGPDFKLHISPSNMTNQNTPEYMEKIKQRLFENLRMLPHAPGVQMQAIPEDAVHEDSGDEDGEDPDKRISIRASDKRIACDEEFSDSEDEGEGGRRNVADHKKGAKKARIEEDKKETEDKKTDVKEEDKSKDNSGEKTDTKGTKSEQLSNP
Histone deacetylase 1, sequence (Q13547 whole entry): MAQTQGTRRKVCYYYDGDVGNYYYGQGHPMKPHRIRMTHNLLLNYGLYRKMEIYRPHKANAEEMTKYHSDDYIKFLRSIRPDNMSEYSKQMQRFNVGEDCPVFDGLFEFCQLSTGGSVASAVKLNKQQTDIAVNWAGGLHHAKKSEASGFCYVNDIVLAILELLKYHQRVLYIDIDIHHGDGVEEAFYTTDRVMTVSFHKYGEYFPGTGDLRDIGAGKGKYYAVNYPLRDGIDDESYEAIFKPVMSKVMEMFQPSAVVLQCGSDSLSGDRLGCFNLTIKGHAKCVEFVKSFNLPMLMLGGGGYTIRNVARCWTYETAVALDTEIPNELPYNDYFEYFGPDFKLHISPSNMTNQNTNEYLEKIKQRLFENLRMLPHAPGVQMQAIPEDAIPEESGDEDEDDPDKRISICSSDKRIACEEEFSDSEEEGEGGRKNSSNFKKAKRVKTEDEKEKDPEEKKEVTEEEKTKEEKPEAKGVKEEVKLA
Histone deacetylase 3, sequence (O15379 whole entry, the tested form may be a part): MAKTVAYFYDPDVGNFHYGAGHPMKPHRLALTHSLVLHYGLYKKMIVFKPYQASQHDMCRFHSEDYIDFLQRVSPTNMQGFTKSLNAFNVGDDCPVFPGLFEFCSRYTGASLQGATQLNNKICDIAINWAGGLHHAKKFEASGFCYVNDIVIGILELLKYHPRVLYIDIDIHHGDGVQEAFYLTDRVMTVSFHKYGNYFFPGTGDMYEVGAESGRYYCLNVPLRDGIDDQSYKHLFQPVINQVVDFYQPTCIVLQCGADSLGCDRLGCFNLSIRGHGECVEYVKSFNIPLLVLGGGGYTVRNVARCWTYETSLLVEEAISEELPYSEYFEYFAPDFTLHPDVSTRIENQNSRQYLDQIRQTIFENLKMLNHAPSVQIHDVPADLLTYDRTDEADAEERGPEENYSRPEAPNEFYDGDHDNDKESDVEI
Histone deacetylase 4, sequence (P56524 whole entry, the tested form may be a part): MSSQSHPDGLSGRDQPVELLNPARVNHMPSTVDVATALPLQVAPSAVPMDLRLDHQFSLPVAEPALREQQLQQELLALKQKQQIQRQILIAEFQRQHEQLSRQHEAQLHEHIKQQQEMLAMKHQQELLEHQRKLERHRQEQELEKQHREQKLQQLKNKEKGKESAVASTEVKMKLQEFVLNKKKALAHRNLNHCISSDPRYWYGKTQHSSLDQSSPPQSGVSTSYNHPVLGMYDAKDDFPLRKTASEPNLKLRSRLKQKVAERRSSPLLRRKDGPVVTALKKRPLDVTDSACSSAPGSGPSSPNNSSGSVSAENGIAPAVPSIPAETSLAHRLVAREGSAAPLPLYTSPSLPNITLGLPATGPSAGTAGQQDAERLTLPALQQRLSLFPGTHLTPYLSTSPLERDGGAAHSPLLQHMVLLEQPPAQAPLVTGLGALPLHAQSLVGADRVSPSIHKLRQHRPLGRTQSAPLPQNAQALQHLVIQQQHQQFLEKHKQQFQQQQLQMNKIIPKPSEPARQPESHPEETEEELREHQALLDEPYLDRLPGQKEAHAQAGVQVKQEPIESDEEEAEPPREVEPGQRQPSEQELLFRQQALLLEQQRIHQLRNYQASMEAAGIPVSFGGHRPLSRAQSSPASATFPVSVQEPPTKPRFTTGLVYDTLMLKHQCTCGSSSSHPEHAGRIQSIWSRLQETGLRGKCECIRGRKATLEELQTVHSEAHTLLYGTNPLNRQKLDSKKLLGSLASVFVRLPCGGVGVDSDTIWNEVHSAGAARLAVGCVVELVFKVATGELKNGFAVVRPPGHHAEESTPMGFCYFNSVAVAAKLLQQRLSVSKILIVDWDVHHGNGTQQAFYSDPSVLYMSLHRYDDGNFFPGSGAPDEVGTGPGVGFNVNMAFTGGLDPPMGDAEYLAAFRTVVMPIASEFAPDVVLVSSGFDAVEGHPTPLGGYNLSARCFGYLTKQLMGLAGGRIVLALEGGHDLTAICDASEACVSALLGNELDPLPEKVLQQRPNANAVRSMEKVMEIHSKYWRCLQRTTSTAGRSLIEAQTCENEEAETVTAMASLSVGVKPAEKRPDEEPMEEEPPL
Histone deacetylase 9, sequence (Q9UKV0 whole entry, the tested form may be a part): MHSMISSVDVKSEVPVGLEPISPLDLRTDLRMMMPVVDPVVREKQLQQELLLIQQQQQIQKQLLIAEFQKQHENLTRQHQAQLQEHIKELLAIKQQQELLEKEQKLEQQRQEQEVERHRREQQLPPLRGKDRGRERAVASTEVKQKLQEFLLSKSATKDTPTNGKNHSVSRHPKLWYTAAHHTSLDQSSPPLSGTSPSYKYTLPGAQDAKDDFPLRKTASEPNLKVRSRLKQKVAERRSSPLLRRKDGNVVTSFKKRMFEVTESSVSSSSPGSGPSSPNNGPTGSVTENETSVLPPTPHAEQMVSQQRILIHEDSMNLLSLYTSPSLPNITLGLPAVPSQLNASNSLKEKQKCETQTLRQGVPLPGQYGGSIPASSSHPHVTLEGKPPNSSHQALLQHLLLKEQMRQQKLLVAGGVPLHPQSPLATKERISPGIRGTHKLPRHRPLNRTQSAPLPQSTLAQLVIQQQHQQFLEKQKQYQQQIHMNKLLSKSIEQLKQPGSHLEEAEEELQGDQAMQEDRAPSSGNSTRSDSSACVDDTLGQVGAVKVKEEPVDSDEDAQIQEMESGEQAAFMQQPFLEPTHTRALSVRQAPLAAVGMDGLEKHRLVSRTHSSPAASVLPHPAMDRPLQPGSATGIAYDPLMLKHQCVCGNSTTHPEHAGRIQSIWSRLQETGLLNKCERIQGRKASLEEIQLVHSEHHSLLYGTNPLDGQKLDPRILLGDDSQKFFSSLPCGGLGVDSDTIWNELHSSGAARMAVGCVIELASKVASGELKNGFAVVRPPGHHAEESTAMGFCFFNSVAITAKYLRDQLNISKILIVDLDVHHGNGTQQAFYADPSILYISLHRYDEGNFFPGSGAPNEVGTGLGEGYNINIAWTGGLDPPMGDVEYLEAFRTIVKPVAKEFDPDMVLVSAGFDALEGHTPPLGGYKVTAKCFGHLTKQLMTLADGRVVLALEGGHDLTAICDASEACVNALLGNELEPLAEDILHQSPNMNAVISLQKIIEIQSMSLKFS
Histone deacetylase 5, sequence (Q9UQL6 whole entry, the tested form may be a part): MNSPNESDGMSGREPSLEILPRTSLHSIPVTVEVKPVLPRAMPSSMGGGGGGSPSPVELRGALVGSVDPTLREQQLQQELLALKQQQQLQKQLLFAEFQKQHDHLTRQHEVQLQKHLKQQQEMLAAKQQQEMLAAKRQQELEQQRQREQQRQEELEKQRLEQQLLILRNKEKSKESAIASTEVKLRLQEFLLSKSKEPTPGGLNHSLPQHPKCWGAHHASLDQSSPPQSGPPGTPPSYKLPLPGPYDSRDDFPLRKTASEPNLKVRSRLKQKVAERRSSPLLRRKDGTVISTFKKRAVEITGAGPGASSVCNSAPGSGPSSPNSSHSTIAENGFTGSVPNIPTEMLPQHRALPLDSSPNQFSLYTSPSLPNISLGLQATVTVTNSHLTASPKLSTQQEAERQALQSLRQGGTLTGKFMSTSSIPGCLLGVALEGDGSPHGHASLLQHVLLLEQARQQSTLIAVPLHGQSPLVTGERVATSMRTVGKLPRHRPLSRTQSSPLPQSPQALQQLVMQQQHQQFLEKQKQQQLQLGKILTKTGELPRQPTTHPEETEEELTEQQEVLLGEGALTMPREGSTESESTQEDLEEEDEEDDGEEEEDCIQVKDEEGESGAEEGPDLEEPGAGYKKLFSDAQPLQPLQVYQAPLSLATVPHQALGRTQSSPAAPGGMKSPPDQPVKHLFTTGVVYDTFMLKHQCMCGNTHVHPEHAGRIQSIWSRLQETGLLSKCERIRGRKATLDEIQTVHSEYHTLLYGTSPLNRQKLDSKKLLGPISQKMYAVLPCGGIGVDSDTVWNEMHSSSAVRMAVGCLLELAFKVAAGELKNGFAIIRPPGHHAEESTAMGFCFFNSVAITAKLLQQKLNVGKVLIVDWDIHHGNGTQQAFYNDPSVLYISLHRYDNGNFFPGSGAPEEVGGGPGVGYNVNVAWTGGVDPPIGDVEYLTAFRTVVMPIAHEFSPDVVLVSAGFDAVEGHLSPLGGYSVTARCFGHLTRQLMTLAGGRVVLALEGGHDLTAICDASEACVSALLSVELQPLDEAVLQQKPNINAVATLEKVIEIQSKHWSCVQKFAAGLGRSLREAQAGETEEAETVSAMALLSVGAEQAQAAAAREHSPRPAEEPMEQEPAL

SMILES | IC50 [1] [nM] | IC50 [2] [nM] | Selectivity Index [3] | further results
O=C(NO)c1cccnc1 [NICOXAMAT] | 679 | 35000 | 51 | –
O=C(NO)c1cc(F)c(Cn2nnc(-c3ncccn3)n2)c(F)c1 | – | 3960 | – | IC50 [4]: 562 nM; IC50 [5]: 2790 nM; IC50 [6]: 5180 nM; IC50 [7]: 3070 nM; IC50 [8]: 9080 nM; IC50 [9]: 504 nM; IC50 [10]: 480 nM; IC50 [11]: 17200 nM
CCN(CC)Cc1ccc2cc(COC(=O)Nc3c(F)cc(C(=O)NO)cc3F)ccc2c1 | 10 | 718 | 70 | –
O=C(NO)c1ccccc1 [BENZOHYDROXAMATE] | 1340 | 25400 | 19 | –
Nc1ccc(C(=O)NO)cc1 | 389 | 7140 | 18 | –
Nc1ccc(C(=O)NO)cn1 | 240 | 9710 | 40 | –
CC(=O)Nc1ccc(C(=O)NO)cc1 | 162 | 1910 | 11 | –
Nc1ncc(C(=O)NO)cn1 | 64 | 3060 | 47 | –
O=C(NO)c1ccc(Cn2nnc(-c3ncccn3)n2)cc1 | – | 930 | 733 | IC50 [4]: 4600 nM; IC50 [12]: 1010 nM; IC50 [5]: 5000 nM; IC50 [6]: 884 nM; IC50 [7]: 762 nM; IC50 [8]: 474 nM; IC50 [9]: 320 nM; IC50 [10]: 1700 nM; IC50 [11]: 3010 nM
O=C(NO)c1cc(F)c(Cn2nnnc2-c2cccs2)c(F)c1 | – | – | – | IC50 [6]: 6040 nM; IC50 [7]: 5660 nM; IC50 [8]: 8740 nM; IC50 [11]: 9230 nM

The next lines start with results.

IC50 [1] [nM] | IC50 [2] [nM] | SMILES | Selectivity Index [3] | further results
27 | 13800 | Cc1c(F)cc(C(=O)NO)cc1F | 505 | –
49 | 6820 | Cc1ccc(C(=O)NO)cc1F | 140 | –
140 | 5640 | Cc1ccc(C(=O)NO)cc1 | 40 | –
453 | 29400 | O=C(NO)c1cccc(F)c1 | 64 | –
70 | 11400 | Cc1ccc(C(=O)NO)cn1 | 162 | –
112 | 15800 | Nc1c(F)cc(C(=O)NO)cc1F | 141 | –
58 | 3210 | CC(=O)Nc1ccc(C(=O)NO)cc1F | 55 | –
183 | 7390 | Nc1ccc(C(=O)NO)cc1F | 40 | –
